The source of these data is US8822455B2, “Fused aminodihydrothiazine derivatives” (Eisai R&D Management Co., Ltd., priority 2011, dated 2014).

For the assay, the system named is Aβ42. The assay is described as follows: In vitro cellular assay (Aβ42): quantification of Aβ peptide in culture of neurons from rat fetus brain (ELISA). Type of assay: cell-based. As to conditions: Primary cortical neuron, 72 h, rat primary cortical neurons (embryonic day 18 Wistar), 3 days after addition of compound, read-out: Cell IC50. The procedure: In vitro Cellular Assay (Aβ42):
Quantification of AβPeptide in Culture of Neurons from Rat Fetus Brain
(1) Rat Primary Neuronal Culture
Primary neuronal cultures were prepared from the cerebral cortex of embryonic day 18 Wistar rats (Charles River, UK). Specifically, the embryos were aseptically removed from pregnant rats under ether anesthesia. The brain was isolated from the embryo and immersed in HBSS (Sigma Aldrich #H9269) containing 10 mM HEPES (Gibco #15630-056). The cerebral cortex was collected from the isolated brain under a stereoscopic microscope. The cerebral cortex fragments collected were enzymatically treated in an enzyme solution containing 0.05% trypsin-EDTA solution (GIBCO, #25300) at 37° C. for 20 minutes to disperse the cells. The cells were then washed twice and then gently resuspended in Neurobasal medium (Gibco #21103) supplemented with 2% B27 supplement (GIBCO #17504-044), 0.5 mM L-glutamine (GIBCO #25030), 1×N2 (GIBCO #17502-048), 100 ug/ml Pen/Strep (GIBCO 15140-122) and 5% heat inactivated FCS (PAA #A15-701). The cell dispersion was filtered through a 40-μm nylon mesh (BD Falcon #352340) to remove the remaining cell mass, and thus a neuronal cell suspension was obtained. The neuronal cell suspension was diluted with the medium above and then plated in a volume of 100 μL/well at an initial cell density of 3.25×10^5 cells/ml in poly-D-lysine coated 96-well culture plate (Greiner #655940). The plated cells were cultured in the culture plate at 37° C. in 5% CO2-95% air for 24 hrs. The total amount of the medium was replaced with ‘assay Neurobasal medium’ (as above excluding heat inactivated FCS), and then the cells were cultured for a further five days.
The drug was added to the culture plate on Day 6 of culture as follows. 8 point compound serial dilutions were generated in DMSO at a concentration of ×1000 that of the final assay concentration (FAC). Compound solutions were then prepared by adding 999 ul of ‘Assay Neurobasal media’ (as described in above section) to 1 ul of DMSO compound stock. The total amount of the medium was removed from each of the cell plate wells, and 200 μL/well of compound solution was added. The final DMSO concentration was 0.1%.
The cells were cultured for either 1 or 3 days after addition of the compound for ABx-40 and ABx-42 assays respectively. 150 μl of sample medium was collected and used as the ELISA sample.
Human/Rat β Amyloid (42) ELISA Kit Wako (#290-62601) and Human/Rat β Amyloid (40) ELISA Kit Wako (#294-62501) from Wako Pure Chemical Industries, Ltd. were used for Aβ ELISA Aβ ELISA was carried out according to the protocols recommended by the manufacturers, described in the documents accompanying the kits. The results were shown as percentage of the control groups and IC50 values for each compound were determined using four parameter logistic fit model using the XLFIT5 software package (IDBS).
A general note: In an ELISA, binding on a coated surface is turned into a signal by an enzyme label.
What is called IC50 is the concentration needed to halve the response being measured. For the compound `C[C@H]1OC[C@]2(c3cc(-c4cncnc4)c(F)cc3F)N=C(N)SC[C@H]12` (relative stereo) [Example 31, (4aS*,5R*,7aS*)-7a-(2,4-Difluoro-5-(pyrimidin-5-yl)phenyl)-5-methyl-4a,5,7,7a-tetrahydro-4H-furo[3,4-d][1,3]thiazin-2-amine], the IC50 came out at 20 nM.
The value for `C[C@H]1OC[C@]2(c3cc(-c4cncnc4)ccc3F)N=C(N)SC[C@H]12` [Example 1, (4aS,5R,7aS)-7a-(2-Fluoro-5-(pyrimidin-5-yl)phenyl)-5-methyl-4a,5,7,7a-tetrahydro-4H-furo[3,4-d][1,3]thiazin-2-amine] was 65 nM; that for `C[C@H]1OC[C@]2(c3cc(-c4ncc[nH]4)ccc3F)N=C(N)SC[C@H]12` [Example 2, (4aS,5R,7aS)-7a-(2-Fluoro-5-(1H-imidazo-2-yl)phenyl)-5-methyl-4a,5,7,7a-tetrahydro-4H-furo[3,4-d][1,3]thiazin-2-amine] was 749 nM.
For the compound `C[C@H]1OC[C@]2(c3cc(-c4cnc(-c5cnccn5)[nH]4)ccc3F)N=C(N)SC[C@H]12` [Example 3, (4aS,5R,7aS)-7a-(2-fluoro-5-(2-(pyrazin-2-yl)-1H-imidazol-5-yl)phenyl)-5-methyl-4a,5,7,7a-tetrahydro-4H-furo[3,4-d][1,3]thiazin-2-amine], the IC50 came to 69 nM.
The value for `C[C@H]1OC[C@]2(c3cc(-c4cccnc4)ccc3F)N=C(N)SC[C@H]12` [Example 4, (4aS,5R,7aS)-7a-(2-Fluoro-5-(pyridin-3-yl)phenyl)-5-methyl-4a,5,7,7a-tetrahydro-4H-furo[3,4-d][1,3]thiazin-2-amine] was 106 nM; that for `C[C@H]1OC[C@]2(c3cc(-c4ccccc4)ccc3F)N=C(N)SC[C@H]12` [Example 5, (4aS,5R,7aS)-7a-(4-Fluoro-[1,1′-biphenyl]-3-yl)-5-methyl-4a,5,7,7a-tetrahydro-4H-furo[3,4-d][1,3]thiazin-2-amine] was 450 nM; that for `C[C@H]1OC[C@]2(c3cc(-c4ccccc4F)ccc3F)N=C(N)SC[C@H]12` [Example 6, (4aS,5R,7aS)-7a-(2′,4-difluoro-[1,1′-biphenyl]-3-yl)-5-methyl-4a,5,7,7a-tetrahydro-4H-furo[3,4-d][1,3]thiazin-2-amine] was 244 nM.
To `C[C@H]1OC[C@]2(c3cc(-c4cccnc4F)ccc3F)N=C(N)SC[C@H]12` [Example 7, (4aS,5R,7aS)-7a-(2-Fluoro-5-(2-fluoropyridin-3-yl)phenyl)-5-methyl-4a,5,7,7a-tetrahydro-4H-furo[3,4-d][1,3]thiazin-2-amine] belongs 62 nM; to `COc1cncc(-c2ccc(F)c([C@]34CO[C@H](C)[C@H]3CSC(N)=N4)c2)c1` [Example 8, (4aS,5R,7aS)-7a-(2-fluoro-5-(5-methoxypyridin-3-yl)phenyl)-5-methyl-4a,5,7,7a-tetrahydro-4H-furo[3,4-d][1,3]thiazin-2-amine], 23 nM.
The value for `C[C@H]1OC[C@]2(c3cc(-c4cncc(F)c4)ccc3F)N=C(N)SC[C@H]12` [Example 9, (4aS,5R,7aS)-7a-(2-Fluoro-5-(5-fluoropyridin-3-yl)phenyl)-5-methyl-4a,5,7,7a-tetrahydro-4H-furo[3,4-d][1,3]thiazin-2-amine] was 60 nM.
In the case of `C[C@H]1OC[C@]2(c3cc(-c4ccc(F)nc4)ccc3F)N=C(N)SC[C@H]12` [Example 10, (4aS,5R,7aS)-7a-(2-Fluoro-5-(6-fluoropyridin-3-yl)phenyl)-5-methyl-4a,5,7,7a-tetrahydro-4H-furo[3,4-d][1,3]thiazin-2-amine], the IC50 is 94 nM.
The value for `COc1ccc(-c2ccc(F)c([C@]34CO[C@H](C)[C@H]3CSC(N)=N4)c2)cn1` [Example 11, (4aS,5R,7aS)-7a-(2-Fluoro-5-(6-methoxypyridin-3-yl)phenyl)-5-methyl-4a,5,7,7a-tetrahydro-4H-furo[3,4-d][1,3]thiazin-2-amine] was 839 nM; that for `C[C@H]1OC[C@]2(c3cc(-c4cc(F)ccc4F)ccc3F)N=C(N)SC[C@H]12` [Example 12, (4aS,5R,7aS)-5-Methyl-7a-(2′,4,5′-trifluoro-[1,1′-biphenyl]-3-yl)-4a,5,7,7a-tetrahydro-4H-furo[3,4-d][1,3]thiazin-2-amine] was 114 nM; that for `C[C@H]1OC[C@]2(c3cc(-c4cncc(C#N)c4)ccc3F)N=C(N)SC[C@H]12` [Example 13, 5-(3-((4aS,5R,7aS)-2-Amino-5-methyl-4a,5,7,7a-tetrahydro-4H-furo[3,4-d][1,3]thiazin-7a-yl)-4-fluorophenyl)nicotinonitrile] was 62 nM.
The value for `C[C@H]1OC[C@]2(c3cc(-c4cncc(C(F)(F)F)c4)ccc3F)N=C(N)SC[C@H]12` [Example 14, (4aS,5R,7aS)-7a-(2-Fluoro-5-(5-(trifluoromethyl)pyridine-3-yl)phenyl)-5-methyl-4a,5,7,7a-tetrahydro-4H-furo[3,4-d][1,3]thiazin-2-amine] was 136 nM.
The value for `Cc1cncc(-c2ccc(F)c([C@]34CO[C@H](C)[C@H]3CSC(N)=N4)c2)c1` [Example 15, (4aS,5R,7aS)-7a-(2-Fluoro-5-(5-methylpyridin-3-yl)phenyl)-5-methyl-4a,5,7,7a-tetrahydro-4H-furo[3,4-d][1,3]thiazin-2-amine] was 101 nM; that for `Cc1cnc(F)c(-c2ccc(F)c([C@]34CO[C@H](C)[C@H]3CSC(N)=N4)c2)c1` [Example 16, (4aS,5R,7aS)-7a-(2-fluoro-5-(2-fluoro-5-methylpyridin-3-yl)phenyl)-5-methyl-4a,5,7,7a-tetrahydro-4H-furo[3,4-d][1,3]thiazin-2-amine] was 58 nM; that for `C[C@H]1OC[C@]2(c3cc(-c4ccn[nH]4)ccc3F)N=C(N)SC[C@H]12` [Example 17, (4aS,5R,7aS)-7a-(2-Fluoro-5-(1H-pyrazol-5-yl)phenyl)-5-methyl-4a,5,7,7a-tetrahydro-4H-furo[3,4-d][1,3]-thiazin-2-amine] was 977 nM.
As for `Cc1ncccc1-c1ccc(F)c([C@]23CO[C@H](C)[C@H]2CSC(N)=N3)c1` [Example 18, (4aS,5R,7aS)-7a-(2-fluoro-5-(2-methylpyridin-3-yl)phenyl)-5-methyl-4a,5,7,7a-tetrahydro-4H-furo[3,4-d][1,3]thiazin-2-amine], the IC50 worked out at 217 nM.
The value for `CC#Cc1cncc(-c2ccc(F)c([C@]34CO[C@H](C)[C@H]3CSC(N)=N4)c2)c1` [Example 19, (4aS,5R,7aS)-7a-(2-fluoro-5-(5-(prop-1-yn-1-yl)pyridin-3-yl)phenyl)-5-methyl-4a 5,7,7a-tetrahydro-4H-furo[3,4-d][1,3]thiazin-2-amine] was 17 nM; that for `C[C@H]1OC[C@]2(c3cc(-c4ccnn4C)ccc3F)N=C(N)SC[C@H]12` [Example 20, (4aS,5R,7aS)-7a-(2-fluoro-5-(1-methyl-1H-pyrazol-5-yl)phenyl)-5-methyl-4a,5,7,7a-tetrahydro-4H-furo[3,4-d]thiazin-2-amine] was over 1000 nM; that for `C[C@H]1OC[C@]2(c3cc(-c4cncc(OC5CC5)c4)ccc3F)N=C(N)SC[C@H]12` [Example 21, (4aS,5R,7aS)-7a-(5-(5-cyclopropoxypyridin-3-yl)-2-fluorophenyl)-5-methyl-4a,5,7,7a-tetrahydro-4H-furo[3,4-d][1,3]thiazin-2-amine] was 127 nM.
The value for `C[C@H]1OC[C@]2(c3cc(-c4cnccn4)ccc3F)N=C(N)SC[C@H]12` [Example 22, (4aS,5R,7aS)-7a-(2-fluoro-5-(pyrazin-2-yl)phenyl)-5-methyl-4a,5,7,7a-tetrahydro-4H-furo[3,4-d][1,3]thiazin-2-amine] was 55 nM.
The value for `C[C@H]1OC[C@]2(c3cc(-c4cccnn4)ccc3F)N=C(N)SC[C@H]12` [Example 23, (4aS,5R,7aS)-7a-(2-fluoro-5-(pyridazin-3-yl)phenyl)-5-methyl-4a,5,7,7a-tetrahydro-4H-furo[3,4-d][1,3]thiazin-2-amine] was 572 nM.
